Results: ChEMBL document CHEMBL6087470, “Design of Small Non-Peptidic Ligands That Alter Heteromerization between Cannabinoid CB1 and Serotonin 5HT2A Receptors” (J Med Chem, 2025)
Activity calls are given as the source filed them. No cut-off for these calls is given here.

Columns and labels:
HEK293T = experiment: Disruption of human CB1R-nYFP-5HT2AR-cYFP heterodimerization co-transfected in HEK293T cells assessed as decrease in fluorescence signal at 4 uM incubated for 4 hrs by BiFC assay; type: cell-based
[1] = target: Cannabinoid receptor 1 (Homo sapiens) (UniProt P21554); experiment: Binding affinity to human CB1R-nYFP-CB1R-cYFP homodimerization co-transfected in HEK293T cells at 4 uM incubated for 4 hrs by BiFC assay; type: cell-based
[2] = target: 5-hydroxytryptamine receptor 2A (Homo sapiens) (UniProt P28223); experiment: Binding affinity to human 5HT2AR-nYFP-5HT2AR-cYFP homodimerization co-transfected in HEK293T cells at 4 uM incubated for 4 hrs by BiFC assay; type: cell-based
HEK-293T [3] = experiment: Effect on G-protein coupling of 5HT2AR in forskolin-treated HEK293T cells transfected with CB1R-nYFP-5HT2AR-cYFP pretreated with WIN by cAMP based HTRF assay; type: functional, cell-based; conditions: Homo sapiens
HEK-293T [4] = experiment: Effect on G-protein coupling of 5HT2AR in forskolin-treated HEK293T cells transfected with CB1R-nYFP-5HT2AR-cYFP pretreated with DOI by cAMP based HTRF assay; type: functional, cell-based; conditions: Homo sapiens
HEK-293T [5] = experiment: Effect on ERK1/2 phosphorylation in forskolin-treated HEK293T cells transfected with CB1R-nYFP-5HT2AR-cYFP pretreated with DOI by cAMP based HTRF assay; type: functional, cell-based; conditions: Homo sapiens
HEK-293T [6] = experiment: Effect on G-protein coupling of 5HT2AR in forskolin-treated HEK293T cells transfected with CB1R-nYFP-5HT2AR-cYFP assessed as decrease in cAMP level pretreated with DOI/WIN by HTRF assay; type: functional, cell-based; conditions: Homo sapiens
HEK-293T [7] = experiment: Upregulation of ERK1/2 phosphorylation in forskolin-treated HEK293T cells transfected with CB1R-nYFP-5HT2AR-cYFP pretreated with DOI/WIN by cAMP based HTRF assay; type: functional, cell-based; conditions: Homo sapiens
HEK-293T [8] = experiment: Effect on G-protein coupling of 5HT2AR in forskolin-treated HEK293T cells transfected with CB1R-nYFP-5HT2AR-cYFP assessed as decrease in cAMP level pretreated with WIN/MDL by HTRF assay; type: functional, cell-based; conditions: Homo sapiens
HEK-293T [9] = experiment: Upregulation of ERK1/2 phosphorylation in forskolin-treated HEK293T cells transfected with CB1R-nYFP-5HT2AR-cYFP pretreated with WIN/MDL by cAMP based HTRF assay; type: functional, cell-based; conditions: Homo sapiens
HEK-293T [10] = experiment: Effect on G-protein coupling of 5HT2AR in forskolin-treated HEK293T cells transfected with CB1R-nYFP-5HT2AR-cYFP assessed as decrease in cAMP level pretreated with DOI/RIM by HTRF assay; type: functional, cell-based; conditions: Homo sapiens
HEK-293T [11] = experiment: Upregulation of ERK1/2 phosphorylation in forskolin-treated HEK293T cells transfected with CB1R-nYFP-5HT2AR-cYFP pretreated with DOI/RIM by cAMP based HTRF assay; type: functional, cell-based; conditions: Homo sapiens

Cannabinoid receptor 1 (Homo sapiens), sequence (P21554 whole entry): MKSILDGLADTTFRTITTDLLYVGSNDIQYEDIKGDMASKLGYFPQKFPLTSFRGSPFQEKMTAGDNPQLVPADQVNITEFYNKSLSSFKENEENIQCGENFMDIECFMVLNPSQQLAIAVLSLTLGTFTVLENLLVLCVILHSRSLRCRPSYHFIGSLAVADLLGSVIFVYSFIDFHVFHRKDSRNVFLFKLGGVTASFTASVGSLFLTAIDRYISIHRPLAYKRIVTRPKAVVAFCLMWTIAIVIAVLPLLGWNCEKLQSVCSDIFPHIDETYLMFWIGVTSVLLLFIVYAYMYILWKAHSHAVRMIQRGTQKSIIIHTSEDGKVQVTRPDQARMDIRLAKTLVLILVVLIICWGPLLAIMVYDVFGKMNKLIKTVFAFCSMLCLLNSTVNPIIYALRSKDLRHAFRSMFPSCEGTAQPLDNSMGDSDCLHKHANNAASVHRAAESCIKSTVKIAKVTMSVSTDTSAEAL
5-hydroxytryptamine receptor 2A (Homo sapiens), sequence (P28223 whole entry): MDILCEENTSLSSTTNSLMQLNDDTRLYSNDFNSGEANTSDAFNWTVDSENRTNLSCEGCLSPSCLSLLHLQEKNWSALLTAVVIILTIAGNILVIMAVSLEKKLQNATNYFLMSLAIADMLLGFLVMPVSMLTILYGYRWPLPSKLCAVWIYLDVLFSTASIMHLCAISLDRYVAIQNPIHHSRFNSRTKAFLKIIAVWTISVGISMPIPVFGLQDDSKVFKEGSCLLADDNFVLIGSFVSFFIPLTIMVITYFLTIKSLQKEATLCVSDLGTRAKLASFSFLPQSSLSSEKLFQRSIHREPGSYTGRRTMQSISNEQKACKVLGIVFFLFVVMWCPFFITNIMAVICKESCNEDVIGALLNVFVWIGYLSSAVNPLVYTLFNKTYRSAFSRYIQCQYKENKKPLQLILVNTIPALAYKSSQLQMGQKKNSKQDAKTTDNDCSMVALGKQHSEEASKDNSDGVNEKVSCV

| SMILES | Activity [1] | Activity [2] | Activity (HEK293T) | Activity (HEK-293T [3]) | Activity (HEK-293T [4]) | Activity (HEK-293T [5]) | Activity (HEK-293T [6]) | Activity (HEK-293T [7]) | Activity (HEK-293T [8]) | Activity (HEK-293T [9]) | Activity (HEK-293T [10]) | Activity (HEK-293T [11]) |
| --- | --- | --- | --- | --- | --- | --- | --- | --- | --- | --- | --- | --- |
| CCC(CC)C(=O)N(Cc1ccccc1)Cc1ccccc1 | inactive | Active | Active | No effect | No effect | No effect | Active | Active | Active | Active | Active | Active |
| CC(C)COCC(NC(=O)c1cccnc1)c1ccco1 (stereo not given) | – | – | Active | – | – | – | – | – | – | – | – | – |
| CC(C)COc1nc(-c2ccccc2)cc(-c2ccccc2)c1C#N | – | – | Active | – | – | – | – | – | – | – | – | – |

Second part, led by results:

| Activity [1] | Activity [2] | SMILES | Activity (HEK293T) | Activity (HEK-293T [3]) | Activity (HEK-293T [4]) | Activity (HEK-293T [5]) | Activity (HEK-293T [6]) | Activity (HEK-293T [7]) | Activity (HEK-293T [8]) | Activity (HEK-293T [9]) | Activity (HEK-293T [10]) | Activity (HEK-293T [11]) |
| --- | --- | --- | --- | --- | --- | --- | --- | --- | --- | --- | --- | --- |
| inactive | Active | CC(C)NC(=O)Cn1ccc2ccc(OCc3ccccc3)cc21 | Active | No effect | No effect | No effect | Active | Active | Active | Active | Active | Active |
| Active | inactive | C=CCNC(=O)c1cn(-c2ccccc2)nc1-c1cccs1 | – | – | – | – | – | – | – | – | – | – |
| inactive | Active | CC(C)CNC(=O)c1oc2ccccc2c1COc1ccccc1 | Active | No effect | No effect | No effect | Active | Active | Active | Active | Active | Active |
